The nature of the data set: break through pressure or vacuum level after exhaustive drying of lock formulations in simulated silicone catheter tubing. The format is physicochemical. To be noted: excipient at approximately 1% by weight. The source says:
FIG. 1 is a view of a sphygmomanometer 10 connected to a syringe 12. The sphygmomanometer 10 includes a gauge 14 with a visual display 16 to measure the pressure or vacuum level. The sphygmomanometer 10 and the syringe 12 were used to measure the break through pressure or vacuum level.
Long silicone rubber commercial catheter extension tubing segments spliced together, or a single small bore with a 1.5 mm inner diameter clear, and very soft laboratory silicone rubber tubing of about 15 inch in length were used for evaluation. Formulations of 30% weight per volume (w/v) ethanol and 4% weight per weight (w/w) tri-sodium citrate with candidate biocompatible excipients were prepared and charged into the lumens of simulated catheter tubings and capped with solid plugs. The samples were first dried near a de-humidifier for about 24 hours to allow evaporation of most ethanol before being placed into a clear polycarbonate drying column connected in series with a large Drierite® desiccant column. The columns were also fitted with a gas flow meter and a diaphragm gas pump to provide closed loop gas circulation at about 4 liter per minute (min-1). […] Both the pressure (+) or vacuum (−) levels to cause the liquid or solid plug movement were measured when subjected to actuation movements from a small air filled syringe 12 connected to a sphygmomanometer 10. […]

On to `OCC(O)CO` [glycerol], for which the “effectiveness of excipient in words” value is on record as “conditionally acceptable” and the time free flowing entry is “greater than 7 days”.

The record behind these values is patent US10300176B2, “Catheter lock solution formulations” (Medline Industries, Inc., priority 2013, dated 2019).
